Results on 23 compounds are retold here after PubChem BioAssay AID180 (DTP/NCI, 2004).

In the test the test system is BDF1 mice, Adenocarcinoma 755 s.c., tumor weight T/C. Put plainly: NCI In Vivo Anticancer Drug Screen. Data for tumor model Adenocarcinoma 755 (subcutaneous) in B6D2F1 (BDF1) mice. As to conditions: endpoint: mean tumor weight, higher = larger tumour. An outline of the steps:
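Values express treated (T) relative to vehicle-dosed control (C) animals, based on survival or tumour size measured after compound treatment of mice bearing a transplanted tumour.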

[1] abbreviates: dose: 50.0 mg/kg/injection, schedule: Q01DX011 (ip), vehicle: saline.
The mark [2] stands for this setting: dose: 250.0 mg/kg/injection, schedule: Q01DX011 (ip), vehicle: carboxymethylcellulose (CMC).
[3] abbreviates: dose: 100.0 mg/kg/injection, schedule: Q01DX011 (ip), vehicle: carboxymethylcellulose (CMC).
The mark [4] stands for this setting: dose: 25.0 mg/kg/injection, schedule: Q01DX011 (ip), vehicle: methylcellulose (MC).
Where [5] appears, read: dose: 15.0 mg/kg/injection, schedule: Q01DX011 (ip), vehicle: methylcellulose (MC).
Where [6] appears, read: dose: 31.0 mg/kg/injection, schedule: Q01DX011 (ip), vehicle: methylcellulose (MC).
The mark [7] stands for this setting: dose: 62.0 mg/kg/injection, schedule: Q01DX011 (ip), vehicle: methylcellulose (MC).
[8] abbreviates: dose: 125.0 mg/kg/injection, schedule: Q01DX011 (ip), vehicle: methylcellulose (MC).
Setting [9] is: dose: 250.0 mg/kg/injection, schedule: Q01DX011 (ip), vehicle: methylcellulose (MC).
The mark [10] stands for this setting: dose: 50.0 mg/kg/injection, schedule: Q01DX011 (ip), vehicle: carboxymethylcellulose (CMC).
Where [11] appears, read: dose: 50.0 mg/kg/injection, schedule: Q01DX011 (ip), vehicle: methylcellulose (MC).
Where [12] appears, read: dose: 100.0 mg/kg/injection, schedule: Q01DX011 (ip), vehicle: methylcellulose (MC).

For orientation: T/C means the result in the treated group divided by that in the control group, in per cent.

“And” between values parts separate entries of the source, which are not always exact repeats. Identical values can stand only once.

`CCCCn1cnc2c(SC)ncnc21`: the T/C (dose: 5.0 mg/kg/injection, schedule: Q01DX011 (ip), vehicle: saline) was 89 % of control; the T/C (dose: 7.5 mg/kg/injection, schedule: Q01DX011 (ip), vehicle: saline) is 119 % of control; the T/C (dose: 10.0 mg/kg/injection, schedule: Q01DX011 (ip), vehicle: saline) is 65 % of control; the T/C (dose: 20.0 mg/kg/injection, schedule: Q01DX011 (ip), vehicle: saline) is 20 % of control; the T/C (dose: 30.0 mg/kg/injection, schedule: Q01DX011 (ip), vehicle: saline) was 26 % of control; the T/C (dose: 40.0 mg/kg/injection, schedule: Q01DX011 (ip), vehicle: saline) was 14 % of control. For the same compound, the T/C reads like this: under setting [1], 10 % of control; (dose: 53.0 mg/kg/injection, schedule: Q01DX011 (ip), vehicle: saline) 5 % of control; (dose: 84.0 mg/kg/injection, schedule: Q01DX011 (ip), vehicle: saline) 5 % of control; (dose: 125.0 mg/kg/injection, schedule: Q01DX011 (ip), vehicle: saline) 4 % of control; (dose: 187.0 mg/kg/injection, schedule: Q01DX011 (ip), vehicle: saline) 1 % of control.
In the case of `c1cc[nH]c1`, the T/C is 101 % of control (dose: 40.0 mg/kg/injection, schedule: Q01DX011 (ip), vehicle: carboxymethylcellulose (CMC)); 68 % of control (dose: 80.0 mg/kg/injection, schedule: Q01DX011 (ip), vehicle: carboxymethylcellulose (CMC)); 113 % of control (dose: 160.0 mg/kg/injection, schedule: Q01DX011 (ip), vehicle: carboxymethylcellulose (CMC)).
Regarding `CN1C=NNc2ncnc(Cl)c21`, the T/C (dose: 125.0 mg/kg/injection, schedule: Q01DX011 (ip), vehicle: carboxymethylcellulose (CMC)) is 166 % of control and the T/C under setting [2] was 161 % of control.
Regarding `C=C1CN(CC)CCO1`, the T/C is 73 % of control (dose: 50.0 mg/kg/injection, schedule: Q01DX011 (ip), vehicle: other) and 72 % of control (dose: 100.0 mg/kg/injection, schedule: Q01DX011 (ip), vehicle: other).
Consider `CCC(=O)c1cc2c(cc1CC)C(C)(C)CCC2(C)C`, for which the T/C under setting [3] was 53 % of control and 63 % of control.
For `CSc1nc(Cl)c2cc[nH]c2n1`, the T/C is 89 % of control (dose: 30.0 mg/kg/injection, schedule: Q01DX011 (ip), vehicle: carboxymethylcellulose (CMC)); 72 % of control (dose: 120.0 mg/kg/injection, schedule: Q01DX011 (ip), vehicle: carboxymethylcellulose (CMC)); 79 % of control (dose: 240.0 mg/kg/injection, schedule: Q01DX011 (ip), vehicle: carboxymethylcellulose (CMC)).
For `CS(=O)(=O)OCCC(=O)N1CCN(C(=O)CCOS(C)(=O)=O)CC1`, the T/C by setting is: (dose: 9.4 mg/kg/injection, schedule: Q01DX011 (ip), vehicle: methylcellulose (MC)) 73 % of control; (dose: 22.0 mg/kg/injection, schedule: Q01DX011 (ip), vehicle: methylcellulose (MC)) 24 % of control and 45 % of control; (dose: 37.5 mg/kg/injection, schedule: Q01DX011 (ip), vehicle: methylcellulose (MC)) 15 % of control; (dose: 44.0 mg/kg/injection, schedule: Q01DX011 (ip), vehicle: methylcellulose (MC)) 9 % of control and 18 % of control; (dose: 88.0 mg/kg/injection, schedule: Q01DX011 (ip), vehicle: methylcellulose (MC)) 3 % of control and 6 % of control.
In the case of `C[C@]12C=CC(=O)C=C1CC[C@@H]1[C@@H]2[C@@H](O)C[C@@]2(C)[C@H]1CC[C@]2(O)C(=O)CF`, the T/C is 64 % of control (dose: 8.0 mg/kg/injection, schedule: Q01DX011 (sc), vehicle: steriod suspending solution); 22 % of control (dose: 16.0 mg/kg/injection, schedule: Q01DX011 (sc), vehicle: steriod suspending solution); 30 % of control (dose: 132.0 mg/kg/injection, schedule: Q01DX011 (sc), vehicle: steriod suspending solution); 5 % of control (dose: 264.0 mg/kg/injection, schedule: Q01DX011 (sc), vehicle: steriod suspending solution).
Take `Cc1ccc(C)c(N=Nc2c(S(=O)(=O)O)cc3cc(NC(=O)Nc4ccc5c(O)c(N=Nc6ccc7cc(S(=O)(=O)O)ccc7c6)c(S(=O)(=O)O)cc5c4)ccc3c2O)c1`: the T/C (dose: 45.0 mg/kg/injection, schedule: Q01DX011 (ip), vehicle: carboxymethylcellulose (CMC)) was 59 % of control.
In the case of `C[C@]12CCCC[C@@H]1CC[C@@H]1[C@@H]2[C@@H](O)C[C@]2(C)[C@@H](N)CC[C@@H]12`, the T/C (dose: 22.0 mg/kg/injection, schedule: Q01DX011 (sc), vehicle: steriod suspending solution) is 106 % of control and the T/C (dose: 44.0 mg/kg/injection, schedule: Q01DX011 (sc), vehicle: steriod suspending solution) was 74 % of control.
Turning to `CC(O)CNc1ncnc2c1cnn2C` (configuration not stated), the T/C runs as follows: (dose: 12.5 mg/kg/injection, schedule: Q01DX011 (ip), vehicle: saline) 94 % of control; (dose: 25.0 mg/kg/injection, schedule: Q01DX011 (ip), vehicle: saline) 30 % of control; under setting [1], 10 % of control.
In the case of `Cn1c(=O)c2c(nc(Cl)n2CCl)n(C)c1=O`, under setting [4], the T/C is 60 % of control.
Take `CSc1ncc(Br)c(Nc2ccc(Br)cc2)n1`: the T/C runs as follows: under setting [5], 94 % of control; under setting [6], 103 % of control; under setting [7], 123 % of control; under setting [8], 114 % of control; under setting [9], 86 % of control.
Take `CCCCCCCCOc1nc(N)nc2n[nH]nc12`: the T/C reads like this: under setting [10], 112 % of control; under setting [3], 69 % of control; (dose: 200.0 mg/kg/injection, schedule: Q01DX011 (ip), vehicle: carboxymethylcellulose (CMC)) 57 % of control.
Regarding `CCN(CC)C(=O)CSc1nc(N)nc2nc[nH]c12`, the T/C is 45 % of control under setting [4]; 12 % of control under setting [11]; 10 % of control under setting [12]; 3 % of control and 13 % of control (dose: 200.0 mg/kg/injection, schedule: Q01DX011 (ip), vehicle: methylcellulose (MC)); 4 % of control (dose: 400.0 mg/kg/injection, schedule: Q01DX011 (ip), vehicle: methylcellulose (MC)).
In the case of `Nc1nc(=S)c2[nH]cnc2[nH]1.[Cu+2]`, the T/C reads like this: (dose: 0.62 mg/kg/injection, schedule: Q01DX011 (ip), vehicle: carboxymethylcellulose (CMC)) 98 % of control; (dose: 1.25 mg/kg/injection, schedule: Q01DX011 (ip), vehicle: carboxymethylcellulose (CMC)) 83 % of control; (dose: 2.5 mg/kg/injection, schedule: Q01DX011 (ip), vehicle: carboxymethylcellulose (CMC)) 105 % of control; (dose: 5.0 mg/kg/injection, schedule: Q01DX011 (ip), vehicle: carboxymethylcellulose (CMC)) 59 % of control.
For the compound `Nc1nc(O)c(Br)c(=O)[nH]1`, the T/C is 86 % of control under setting [5], 69 % of control under setting [6] and 68 % of control under setting [7].
For `Clc1nc(Cl)c2ncn(C3CCCO3)c2n1` (configuration not stated), the T/C (dose: 33.0 mg/kg/injection, schedule: Q01DX011 (ip), vehicle: methylcellulose (MC)) was 65 % of control.
As to `Cc1cn(C2CCCCC2)c(=O)n(-c2ccccc2)c1=O`, the T/C was 108 % of control under setting [5]; 91 % of control under setting [6]; 93 % of control under setting [7]; 96 % of control under setting [8]; 88 % of control under setting [9].
Turning to `O=C1CCC(N2C(=O)c3ccccc3C2=O)C(=O)N1` (configuration not stated), the T/C under setting [2] is 48 % of control and the T/C (dose: 375.0 mg/kg/injection, schedule: Q01DX011 (ip), vehicle: carboxymethylcellulose (CMC)) is 56 % of control.
`CCCCOP(=O)(OCCCC)OCC1OC(n2cnc3c(=S)nc[nH]c32)C(O)C1O` (configuration not stated): the T/C under setting [6] was 100 % of control, the T/C under setting [7] was 65 % of control and the T/C under setting [8] was 46 % of control.
Consider `NC(=O)c1cc(N)nc(N)n1`, for which the T/C by setting is: under setting [5], 97 % of control; under setting [6], 106 % of control; under setting [7], 114 % of control; under setting [8], 45 % of control.
As to `CSc1nc(Cl)c(Br)c(Sc2nc(N)nc3nc[nH]c23)n1`, the T/C (dose: 6.25 mg/kg/injection, schedule: Q01DX011 (ip), vehicle: methylcellulose (MC)) was 39 % of control; the T/C (dose: 12.0 mg/kg/injection, schedule: Q01DX011 (ip), vehicle: carboxymethylcellulose (CMC)) is 59 % of control; the T/C (dose: 12.0 mg/kg/injection, schedule: Q01DX011 (ip), vehicle: methylcellulose (MC)) was 29 % of control; the T/C (dose: 12.5 mg/kg/injection, schedule: Q01DX011 (ip), vehicle: methylcellulose (MC)) was 27 % of control; the T/C (dose: 25.0 mg/kg/injection, schedule: Q01DX011 (ip), vehicle: carboxymethylcellulose (CMC)) was 28 % of control; the T/C under setting [4] was 33 % of control and 48 % of control. The T/C is 5 % of control under setting [10], 42 % of control under setting [11] and 7 % of control under setting [12].
